In paper PMC10079954, “Rational design of phase separating peptides based on phase separating protein sequence of p53” (Scientific Reports, 2023):
Blank lines part the entries; values can stand above or below the molecule they belong to.

Tests used:
[1] = tested on: p53 monomer (L344P) mutant; assay: Recruitment (enrichment index) of p53 monomer into designed peptide droplets; design: species or system human
Excerpt: (§1) We prepared p53 tetramer, dimer, and monomer mutants, as described previously[8],[37],[50]. For the p53 tetramer, a thermostable and cysteine-modified human p53 mutant (C124A, C135V, C141V, W146Y, C182S, V203A, R209P, C229Y, H233Y, Y234F, N235K, Y236F, T253V, N268D, C275A, C277A, and K292C) was used[50]. The dimer and monomer mutants of p53 corresponded to L344A and L344P of the tetramer sequence, respectively[8],[37]. These p53 mutants were expressed with a glutathione S-transferase (GST) tag in E. coli and purified after cleavage of the GST tag, as described previously[50],[51]. The oligomeric state of p53 mutants was confirmed using a gel filtration column (Superdex 200; GE Healthcare). p53 mutants were labeled with Atto488 (ATTO-TEC) or Alexa488 (Thermo Fisher) using maleimide chemistry and then purified using a heparin column (GE Healthcare). We prepared Alexa488-labeled FUS-MBP as described previously[37],[39].
(§2) Recruitment evaluations were performed following the method described in our previous studies[37],[41]. Solutions containing 0.9–1.8 mM designed peptides, 0.1 µM Alexa488-labeled p53 mutants or Alexa488, 25 mM HEPES, 0.5 mM EDTA, and 1 mM DTT at pH 7.0 were used. The solutions were then incubated at 22 °C for five minutes. The aforementioned microscope was used with HILO illumination. To prevent photo-bleaching of the fluorescent samples, we used a laser power of 0.15 mW. The images were acquired at 22 °C. Using the ImageJ software, we calculated the EI values of the individual droplets as follows:2 EI=Idroplet/Isolution, where Idroplet and Isolution represent the average fluorescence intensities of the individual droplets and solutions near the droplets with background substitution, respectively.

[2] = tested on: p53 dimer (L344A) mutant; assay: Recruitment (enrichment index) of p53 dimer into designed peptide droplets; design: species or system human; settings: (GGGS)3-linker versus GSGS-linker droplets; no salt, pH 7.0
Excerpt: as §1
Recruitment evaluations were performed following the method described in our previous studies[37],[41]. […] Using the ImageJ software, we calculated the EI values of the individual droplets as follows:2 EI=Idroplet/Isolution, where Idroplet and Isolution represent the average fluorescence intensities of the individual droplets and solutions near the droplets with background substitution, respectively.

[3] = tested on: p53 tetramer; assay: Recruitment (enrichment index) of p53 tetramer into designed peptide droplets; design: species or system human; settings: no salt, pH 7.0
Excerpt: as §1, §2

[4] = Salt and 1,6-hexanediol dependence of droplet/aggregate formation (scattering at 350 nm, DIC); format: physicochemical; settings: 1 mM peptide, 25 mM HEPES, 0.5 mM EDTA, pH 7.0, 22 °C; scattering at 350 nm and DIC
Description: We detected light scattering corresponding to the designed peptide droplets by measuring OD350 values using an absorbance spectrometer (NanoDrop One; Thermo Fisher).
(A, B) Effect of additives, 1,6-hexandiol (1,6-HD) and NaCl, on aggregate formation of DPp53N-GSGS-DPp53C2 was monitored as the scattering intensity observed at 350 nm (A) and via DIC images (B). The measurements were conducted in a solution containing 25 mM HEPES, 0.5 mM EDTA, and 1 mM DPp53N-GSGS-DPp53C2 in the presence or absence of additives at pH 7.0 and 22 °C.
Fig. S7 Designed peptide droplets are sensitive to salt concentration but not to 1,6-hexandiol. (A, B) Salt-concentration dependence of droplet formation of designed peptides monitored as the scattering intensity at 350 nm (A) and via DIC images (B). (C, D) Effect of 1,6-hexandiol on droplet formation of designed peptides monitored as the scattering intensity at 350 nm (C) and via DIC images (D). The measurements were performed in a solution containing 1 mM designed peptides, 25 mM HEPES, and 0.5 mM EDTA at pH 7.0 and 22 °C. In panels (A) and (C), the errors denote the standard errors of at least three measurements.

[5] = Phase separation of designed peptides by DIC and fluorescence microscopy; format: physicochemical; settings: DIC microscopy; 0.9–1.8 mM peptide, 25 mM HEPES, 0.5 mM EDTA, pH 7.0, no salt, MPC polymer-coated coverslip, 20 or 22 °C
Description: Differential interference contrast (DIC) microscopy confirmed that these peptides (0.9–1.8 mM) underwent phase separation in 25 mM HEPES and 0.5 mM EDTA at pH 7.0 (Fig. 2B). To prevent the melting of clusters on the coverslip surface, 2-methacryloyloxyethyl phosphorylcholine (MPC) polymer coating was used[36],[37] (Supplementary Fig. S1). Samples were prepared by sonicating a 2 mM peptide solution or diluting the peptide solution from a 10 mM peptide stock after storage under freezing conditions. Four of the designed peptides, except DPp53N-GSGS-DPp53C2, formed μm-sized spherical clusters. Fluorescence microscopy confirmed the high concentration of peptides labeled with the fluorescent dye Alexa488 in the clusters (Fig. 2B). […] Cross-β structure was also supported by the observation of intrinsic fluorescence upon 400–440 nm excitation[40] (Supplementary Fig. S2). […]
(§3) The DIC and fluorescence modes of an inverted microscope (IX-73; Olympus, Tokyo, Japan) equipped with microscopic objectives (60 × and 10 ×) and a camera (DP74) were used, as described previously. […] DIC and fluorescence images were obtained at 20 or 22 °C. For intrinsic fluorescence measurements, the excitation and detection wavelengths were 440–440 nm and larger than 460 nm, respectively.

[6] = Cross-β structure detection with amyloid-sensitive probe Picogreen; format: physicochemical; settings: Picogreen 25 µM, 25 mM HEPES, 0.5 mM EDTA, pH 7.0
Description: Differential interference contrast (DIC) microscopy confirmed that these peptides (0.9–1.8 mM) underwent phase separation in 25 mM HEPES and 0.5 mM EDTA at pH 7.0 (Fig. 2B). To prevent the melting of clusters on the coverslip surface, 2-methacryloyloxyethyl phosphorylcholine (MPC) polymer coating was used[36],[37] (Supplementary Fig. S1). Samples were prepared by sonicating a 2 mM peptide solution or diluting the peptide solution from a 10 mM peptide stock after storage under freezing conditions. Four of the designed peptides, except DPp53N-GSGS-DPp53C2, formed μm-sized spherical clusters. Fluorescence microscopy confirmed the high concentration of peptides labeled with the fluorescent dye Alexa488 in the clusters (Fig. 2B). […] Cross-β structure was also supported by the observation of intrinsic fluorescence upon 400–440 nm excitation[40] (Supplementary Fig. S2). Clusters of aromatic W residues in DPp53N-GSGS-DPp53C2 may lead to the formation of solid aggregates, which is consistent with the results of different systems[21],[34].
as §3, with “previously. We used the solution containing 0.9–1.8 mM designed peptide, 0.1 μM Alexa488-labeled peptide, 25 mM HEPES, and 0.5 mM EDTA at pH 7.0. To detect the cross-β structure, picogreen was added at 25 µM for DPp53N-GSGS-DPp53C2 or 2.5 µM for others instead of the Alexa488-labeled peptide.” for “previously.”
Fig. S8 Time course of cross-β structure formation of designed peptides in droplets monitored by DIC and fluorescence images. The fluorescence was detected corresponding to the amyloid marker Picogreen at 2.5 µM in a solution containing 0.9 mM designed peptides, 25 mM HEPES, and 0.5 mM EDTA at pH 7.0 and 22 °C.

[7] = target: 5-FAM-labeled DP_(p53N); assay: fluorescence polarisation; fluorescence anisotropy; non-labeled peptide titrated into 40 nM 5-FAM-labeled DP_(p53N); 25 mM HEPES, 0.5 mM EDTA, 2 mg/mL BSA, 2 mM Trolox, pH 7.0, 25 °C; one-to-one binding model

Molecule: RRRVVQRRRRGGGSGGGSGGGSDDDDDDD [DPp53N-(GGGS)3-D7]
Decrease of average EI of p53 monomer mutant compared to the GSGS-linker peptide ([1]; (GGGS)3-linker versus GSGS-linker droplets, no salt, pH 7.0): 1.8 fold | Increase of average EI of p53 dimer mutant compared to the GSGS-linker peptide [2]: 3.3 fold | Increase of average EI of p53 tetramer compared to the GSGS-linker peptide ([3]; (GGGS)3-linker versus GSGS-linker droplets): 3.1 fold

Molecule: RRRVVQRRRRGSGSDDDASQEDDD [DPp53N-GSGS-DPp53C1]
Enrichment index (EI) of p53 monomer (L344P) mutant in peptide droplets ([1]; 0.9–1.8 mM designed peptide, 0.1 µM Alexa488-labeled p53, 25 mM HEPES, 0.5 mM EDTA, 1 mM DTT, pH 7.0, 22 °C, ± standard error, SEM): 14.7 ± 0.5 | Decrease of average EI of p53 tetramer relative to p53 monomer ([3]; droplet interior regions, surface not included): 2.6 fold

Aggregate formation at high concentrations of salt and 1,6-hexanediol [4]: not significantly suppressed | Picogreen fluorescence of clusters [6]: high intensity
Molecule: RRRVVQRRRRGSGSEDDDWWMWWD [DPp53N-GSGS-DPp53C2]
Cluster morphology (phase separation) [5]: non-spherical clusters that corresponded to solid aggregates

fold higher affinity than the DP (p53C)1 fragment for the DP (p53N) fragment [7]: 2 fold
Molecule: GSGSDDDDDDD [GSGS-D7]
